Marks after values point to notes of the source that are not given here.
How the values were obtained:
[1] = test system: deoxymyoglobin (deoxy-Mb); assay: Myoglobin assay: conversion of deoxy-Mb to MbCO on direct addition of metal carbonyl; type: biochemical, horse; details: direct addition to myoglobin solution (66 μM), no light
Procedure: The release of CO from metal carbonyl complexes was assessed spectrophotometrically by measuring the conversion of deoxymyoglobin (deoxy-Mb) to carbonmonoxy myoglobin (MbCO). MbCO has a distinctive absorption spectrum between 500 and 600 nm, and changes at 540 nm were used to quantify the amount of CO liberated. Myoglobin solutions (66 μM final concentration) were prepared freshly by dissolving the protein in 0.04 M phosphate buffer (pH 6.8). Sodium dithionite (0.1%) was added to convert myoglobin to deoxy-Mb prior to each reading. All the spectra were measured using a Helios a spectrophotometer.
Various metal carbonyl complexes were tested for their ability to elicit MbCO formation when added directly to a deoxy-Mb solution. To different extents, [Ru(CO)3Cl2]2, [Ru(CO)2(DMSO)2Cl2], [Ru(CO)3Cl2(cytosine)] and […] all released CO when added directly to the Mb solution.
The metal carbonyl complex was solubilized in DMSO (9.7 mM stock solution), aliquots of 2 to 32 μl were added directly to 1 ml of deoxy-Mb solutions (66 μM) and absorption spectrum determined immediately after mixing the samples by inversion.

[2] = test system: aortic rings pre-contracted with phenylephrine; assay: Relaxation of isolated aortic rings pre-contracted with phenylephrine; parameters: species or system rat
Procedure: Transverse ring sections of thoracic aorta were isolated from male Lewis rats and suspended under a 2 g tension in an organ bath containing oxygenated Krebs-Henseleit buffer at 37° C. as previously described (23). The relaxation response to cumulative doses of metal carbonyl (dissolved in DMSO—see section 2) was assessed in aortic rings pre-contracted with phenylephrine (3 μM). Control rings were similarly treated by adding equal doses of DMSO (vehicle) to the organ bath.

[3] = Systemic blood pressure and heart rate in anaesthetised Sprague-Dawley rats; type: in vivo, rat
Procedure: Adult male Sprague-Dawley rats (280-350 g, 8-10 weeks of age) were bred in-house at the Northwick Park Institute for Medical Research (Harrow, UK). Rats were housed in groups of 3 in cages under a 12 h cycle of day/night, with free access to drinking water and fed ad libitum. All surgical procedures were performed in compliance with U.K. Home Office regulations. Rats were anaesthetised in a polycarbonate chamber in a stream of Enflurane™ (Abbot, UK) in oxygen before being transferred onto a mask and continuously supplied with Enflurane™ throughout the experiment with an anaesthetic machine (Aimed, UK). During the surgical procedure the rats were kept at a constant body temperature of 37° C. using a heat pad positioned underneath the operating surface. Specially designed femoral artery and venous catheters were then surgically implanted as previously described (see ref. 40). The catheter in the artery was connected via a luer connector and a three-way tap to a pressure transducer (Gould model P23ID, Statham, USA) for continuous mean arterial pressure (MAP) and heart rate (HR) monitoring. A purpose-built tail-cuff pressure transducer (ADInstruments, UK) was also placed on the tail of the rat and pressure transducer and tail cuff were connected to a polygraph recorder (Grass, Model 7D, Astra-med, UK) pre-calibrated in millimeters of mercury (mmHg). An analogue output provided data for a computer-based data acquisition system (PowerLab™, ADInstruments, UK). The computer-based system was set to record mean arterial pressure (MAP), in mmHg, and heart rate (HR), in beats/min (bpm), for the duration of the experiment. […] Once a stable pressure had been reached, each catheter was flushed with saline containing heparin and no further changes were made to the anaesthetic supply. Ru(CO)3Cl(glycinato) (CO-RM-3) was prepared in stock solutions of 20, 60 and 120 μmoles·ml^−1 by solubilizing the compound in saline. […] CO-RM-3 (or the negative control) was then infused into the animal via the femoral vein catheter as a bolus so that the final concentration infused was 10, 30 or 60 μmoles·kg^−1 body weight. Throughout the experiment MAP and HR were continuously recorded and monitored. Although concentrations of 10, 30 and 60 μmoles·kg^−1 were infused into each animal, the resulting concentrations in the animal were cumulative. Therefore, the final concentration attained in the animal was 10, 40 and 100 μmoles·kg^−1, respectively.
The results are presented in Table 2, where the data shown represents samples taken at baseline (just before infusion of the compound) and directly after administration of 10, 30 and 60 μmoles·kg^−1 of the compound. All data are mean i SEM. n=3 independent experiments. *P<0.05 vs. baseline.

[4] = Cardiac transplant rejection, BALB/c hearts into CBA mice; type: in vivo, mouse; details: 40 mg/kg i.p. doses
Procedure: Hearts from male BALB/c mouse (25-30 g) were used as donor organs for transplantation into male CBA mice (25-30 g). Mice were housed in groups of 3 in cages under a 12 h cycle of day/night, with free access to drinking water and fed ad libitum. All surgical procedures were performed in compliance with U.K. Home Office regulations. Animals were anaesthetized by an intraperitoneal injection of ketamine/xylazine during all procedures. The surgical technique involved the transplantation of the cardiac allograft into the recipient's neck as previously described (51). Graft survival was assessed daily by palpation, and rejection was diagnosed by cessation of ventricular contractions.
Ru(CO)3Cl(glycinato) was dissolved in 0.1 ml saline and administered intraperitoneally. All doses are 40 mg/kg of Ru(CO)3Cl(glycinato). The donors received two doses of Ru(CO)3Cl(glycinato) respectively at 1 day and 15 min prior to cardiac harvest. The recipients received doses of Ru(CO)3Cl(glycinato) at 1 day before surgery, 30 min prior to cardiac reperfusion and 1 h after transplantation (Day 0). Thereafter, graft recipients received a daily dose of Ru(CO)3Cl(glycinato) from day 1 to day 8(inclusive) post-transplant. In the control group, recipients received an equivalent dose of saline (vehicle) 1 day before and each day (days 1 to 8) after cardiac transplantation. Carprofen (0.01 mg) was given subcutaneously for pain relief immediately after transplantation to all animals. The results of this study are shown in FIG. 10. n=5 for each group. *p<0.002 vs. control. BALE/c hearts transplanted into CBA mice following treatment with saline (control group) underwent rejection'very rapidly. 100% of hearts stopped beating within 9 days of transplantation.

[5] = test system: RAW 264.7 macrophages; assay: Nitrite (NO) production in LPS-stimulated macrophages, Griess reagent method; type: cell-based, mouse; details: 10, 50 and 100 μM, 24 h with LPS 3 μg/ml
Description: Control cells were exposed to culture medium alone.

[6] = test system: RAW 264.7 macrophages; details: 24 h, LPS 3 μg/ml with or without CO-RM-3 10, 50 and 100 μM
Procedure: Mouse RAW 264.7 macrophages were cultured in 24 wells using DMEM medium Confluent cells were incubated for 24 h with E. Coli lipopolysaccharide (LPS, 3 μg/ml) in the presence or absence of increasing concentrations of CO-RM-3 (10, 50 and 100 μM). Control cells were exposed to culture medium alone. […] Cell viability was also assessed in macrophages 24 h after treatment with the various agents as described in reference 47.

[7] = cumulative doses, phenylephrine 3 μM
[8] = directly after i.v. bolus 10 μmol/kg
[9] = directly after i.v. bolus 30 μmol/kg (cumulative 40)

NCC(=O)O.[C-]#[O+].[C-]#[O+].[C-]#[O+].[Cl][Ru] [CO-RM-3, Ru(CO)3Cl (NH2CH2CO2)]
MbCO formation / CO release when added directly to deoxy-Mb solution ([1]; listed as [Bu(CO)3(glycinate)Cl]): released CO
MbCO formation / CO release when added directly to deoxy-Mb solution ([1]; listed as [Ru(CO)3(glycinato)Cl]): high release of CO
vasodilatory effect on pre-contracted aortic rings (in words) ([2]; consecutive additions): elicited significant vasodilatation
% Relaxation, 1st addition [2, 7]: 36%
% Relaxation, 2nd addition [2, 7]: 66.6%
% Relaxation, 3rd addition [2, 7]: 68.3%
transient decrease in MAP ([3]; 10 μmoles·kg^−1 bolus infusion): 6±2 mmHg
transient decrease in MAP ([3]; 30 μmoles·kg^−1 bolus infusion): 8±3 mmHg
transient decrease in MAP ([3]; 60 μmoles·kg^−1 bolus infusion): 14±0.3 mmHg
effects on HR or MAP (in words) ([3]; 10, 30 or 60 μmoles·kg^−1): concentration-dependent transient decrease in MAP
period of return of MAP to baseline ([3]; after bolus infusion): 10 min
HR, 10 μmol.kg^−1 [3, 8]: 276 ± 20 bpm
MAP, 10 μmol.kg^−1 [3, 8]: 73 ± 2 mmHg
HR, 30 μmol.kg^−1 [3, 9]: 261 ± 22 bpm
MAP, 30 μmol.kg^−1 [3, 9]: 72 ± 7 mmHg
MAP, 60 μmol.kg^−1 ([3]; directly after i.v. bolus 60 μmol/kg (cumulative 100)): 65 ± 4* mmHg
HR, 60 μmol.kg^−1 ([3]; directly after i.v. bolus 60 μmol/kg (cumulative 100), listed as Ru(CO)3Cl(glycinate)): 253 ± 23 bpm
HR, 60 μmol.kg^−1 ([3]; directly after i.v. bolus 60 μmol/kg (cumulative 100), listed as Ru(CO)3Cl(glycinato)): 253±23 bpm
MAP, Baseline ([3]; just before infusion of the compound): 79 ± 2 mmHg
HR, Baseline ([3]; just before infusion of the compound, listed as Ru(CO)3Cl(glycinate)): 270 ± 20 bpm
HR, Baseline ([3]; just before infusion of the compound, listed as Ru(CO)3Cl(glycinato)): 270±20 bpm
survival time of transplanted hearts (in words) ([4]; vs. saline control): significantly prolonged
hearts still beating ([4]; 18 days after transplantation): 100%
mice without any sign of rejection ([4]; 25 days after heart transplantation): 60%
transplanted hearts still viable ([4]; at 30 days): 40%
nitrite generation in LPS-stimulated macrophages [5]: significantly attenuated nitrite generation in a concentration dependent manner
cell viability of macrophages [6]: did not affect cell viability

Reference: patent US8236339B2, “Therapeutic delivery of carbon monoxide” (priority 2001, dated 2012)
